Experimental data as given in patent publication US9187465B2, “Oxazole tyrosine kinase inhibitors” (Sareum Limited, priority 2007, dated 2015).
pIC50: −log10 of the molar value. Counter-ions that a name gives are not always drawn.

Key:
Format in all cases: biochemical
human FLT4 = biological target: T1, human FLT4 (Homo sapiens, UniProt P35916); test: FLT4 kinase assay (DELFIA enzyme inhibition); conditions: read-out: FLT4 IC50
T1 construct: a construct expressing the human FLT4 (789-1207) with an amino terminal GST tag; host or cells: Sf9 insect cells (baculovirus)
In short: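 Read-out is DELFIA: biotinylated MET Tyr1253-derived peptide captured on Neutravidin, phosphotyrosine detected by Eu-antibody time-resolved fluorescence. Enzyme is Sf9-expressed GST-FLT4 (789-1207), reacting 30 min at room temperature before EDTA stop. IC50 derived from plotted % inhibition.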

human FLT3 = biological target: T2, human FLT3 (Homo sapiens, UniProt P36888); test: FLT3 kinase assay (DELFIA enzyme inhibition)
T2 construct: a construct expressing the human FLT3 (564-993) with an amino terminal GST tag; host or cells: Sf9 insect cells (baculovirus)
T2 sequence (P36888 564-993): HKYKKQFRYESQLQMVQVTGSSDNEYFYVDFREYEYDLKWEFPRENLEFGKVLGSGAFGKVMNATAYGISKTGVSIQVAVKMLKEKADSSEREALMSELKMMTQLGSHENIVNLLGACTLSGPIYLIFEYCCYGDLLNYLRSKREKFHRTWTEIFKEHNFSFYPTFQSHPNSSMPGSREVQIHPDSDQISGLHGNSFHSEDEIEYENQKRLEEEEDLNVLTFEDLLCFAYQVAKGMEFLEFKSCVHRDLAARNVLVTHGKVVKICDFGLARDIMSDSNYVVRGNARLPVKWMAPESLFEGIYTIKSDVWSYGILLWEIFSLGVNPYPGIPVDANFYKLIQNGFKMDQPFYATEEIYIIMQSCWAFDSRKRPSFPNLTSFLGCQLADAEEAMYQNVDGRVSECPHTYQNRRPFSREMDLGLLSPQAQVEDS
Description: A GST-kinase fusion protein of 70 KDa was produced using sf9 baculovirus expression system, with a construct expressing the human FLT3 (564-993) with an amino terminal GST tag. The protein was purified by one-step affinity chromatography using glutathione-agarose.
FLT3 enzyme activity is determined using a Dissociation Enhanced Lanthanide Fluorescent Immunoassay (DELFIA) with a peptide substrate derived from the Gastrin Precursor (Tyr 87) peptide […] with a core sequence: EAYGW.
The amount of phosphorylated peptide produced is detected by means of a phospho-Tyrosine specific Europium-labelled antibody using Time-Resolved Fluorescence at Excitation 360-35 nm and Emission 620-35 nm.
Assay reactions are set up in a 25 uL final volume on a 96 well plate. […] The reaction is allowed to proceed for 30 minutes at room temperature before stopping with 100 μL Stop solution comprising of 100 mM EDTA, 1×BSA blocker in TBS (Perbio) and 0.05% Surfact-Amps20 (Perbio).
The stopped reaction is transferred to a black 96-well Neutravidin-coated plate (Perbio) and incubated for 30 minutes to capture the biotinylated peptide substrate. After washing wells 3 times with 200 uL TBS/T buffer, Anti-Phospho-Tyr-100 antibody labelled with Eu—N1 (Perkin Elmer AD0159) is added to all wells for 60 minutes at room temperature. After a repeat washing step, DELFIA Enhancement solution (Perkin Elmer) is added to all wells for 5 minutes and the fluorescence measured on a plate reader Analyst HT (Molecular Devices).
The % inhibition of the activity is calculated and plotted in order to determine the concentration of test compound required to inhibit 50% of the enzyme activity (IC50).

human Aurora A = biological target: T3, human Aurora A (Homo sapiens, UniProt O14965); test: Aurora A kinase assay (DELFIA enzyme inhibition); conditions: read-out: Aurora A IC50
T3 construct: Histidine tag (N); host or cells: Sf9 insect cells (baculovirus)
T3 sequence (O14965 1-403): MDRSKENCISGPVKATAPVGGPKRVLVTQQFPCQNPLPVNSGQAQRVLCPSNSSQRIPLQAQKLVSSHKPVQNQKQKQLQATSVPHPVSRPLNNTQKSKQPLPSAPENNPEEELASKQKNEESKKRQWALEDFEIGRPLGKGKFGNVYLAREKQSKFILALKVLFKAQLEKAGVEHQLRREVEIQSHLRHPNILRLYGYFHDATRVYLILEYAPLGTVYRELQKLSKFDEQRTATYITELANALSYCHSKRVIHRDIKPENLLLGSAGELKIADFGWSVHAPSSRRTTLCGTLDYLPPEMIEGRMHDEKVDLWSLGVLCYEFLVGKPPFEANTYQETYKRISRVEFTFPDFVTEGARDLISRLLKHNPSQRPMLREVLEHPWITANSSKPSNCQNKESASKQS
In short: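 DELFIA read-out (time-resolved Eu fluorescence, 620 nm emission) after Neutravidin capture of biotinylated peptide substrate and antibody detection. Reaction: Ni-agarose-purified Aurora A, 30 min at room temperature, stopped with 100 mM EDTA.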

T1 sequence (P35916 789-1207): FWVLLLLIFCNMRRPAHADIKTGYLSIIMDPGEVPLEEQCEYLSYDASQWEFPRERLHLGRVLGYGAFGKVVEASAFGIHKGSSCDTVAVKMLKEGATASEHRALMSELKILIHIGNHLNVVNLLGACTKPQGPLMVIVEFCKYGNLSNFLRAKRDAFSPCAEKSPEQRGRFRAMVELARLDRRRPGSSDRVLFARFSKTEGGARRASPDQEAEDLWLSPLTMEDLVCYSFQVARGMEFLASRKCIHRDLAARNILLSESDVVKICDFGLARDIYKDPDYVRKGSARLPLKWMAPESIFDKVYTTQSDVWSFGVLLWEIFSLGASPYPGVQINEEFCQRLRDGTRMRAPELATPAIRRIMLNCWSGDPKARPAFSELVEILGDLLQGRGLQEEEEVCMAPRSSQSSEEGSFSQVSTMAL

Work on `NC(=O)c1nc(-c2c(F)cccc2F)oc1Nc1ccc(-c2cc(CO)on2)cc1` [Example Q-33, 2-(2,6-difluorophenyl)-5-(4-(5-(hydroxymethyl)isoxazol-3-yl)phenylamino)oxazole-4-carboxamide] yielded a pIC50 (human FLT4) greater than 5.00, a pIC50 (human FLT3) greater than 4.00 and a pIC50 (human Aurora A) greater than 5.00.
`NC(=O)c1nc(-c2ccccc2F)oc1Nc1ccc(N2CCOCC2)cc1` [Example Q-23, 2-(2-Fluorophenyl)-5-(4-morpholinophenylamino)oxazole-4-carboxamide] gave a pIC50 (human FLT4) greater than 5.00, a pIC50 (human FLT3) greater than 5.00 and a pIC50 (human Aurora A) greater than 5.00.
`NC(=O)c1nc(-c2c(F)cccc2N2CCC(O)CC2)oc1-c1ccc(OCCN2CCC(O)CC2)cc1` [Example S-3, 2-(2-fluoro-6-(4-hydroxypiperidin-1-yl)phenyl)-5-(4-(2-(4-hydroxypiperidin-1-yl)ethoxy)phenyl)oxazole-4-carboxamide] gave a pIC50 (human FLT4) greater than 4.00, a pIC50 (human FLT3) greater than 4.00 and a pIC50 (human Aurora A) greater than 4.00.
`CN1CCN(C(=O)c2ccc(Nc3oc(-c4c(F)cccc4F)nc3C(N)=O)cc2)CC1CCO` (stereo not drawn) [Example U-24, 2-(2,6-difluorophenyl)-5-(4-(2-(2-hydroxyethyl)-1-methylpiperazine-4-carbonyl)phenylamino)oxazole-4-carboxamide] was tested, and the pIC50 (human FLT4) was greater than 5.00, the pIC50 (human FLT3) was greater than 5.00 and the pIC50 (human Aurora A) was greater than 5.00.
In the case of `NC(=O)c1nc(Nc2ccc3[nH]ncc3c2)oc1-c1ccc(N2CCNCC2)cc1` [Example R-15, 2-(1H-indazol-5-ylamino)-5-(4-(piperazin-1-yl)phenyl)oxazole-4-carboxamide], the pIC50 (human FLT4) was greater than 5.00, the pIC50 (human FLT3) was greater than 5.00 and the pIC50 (human Aurora A) was greater than 5.00.
In the case of `NC(=O)c1nc(-c2c(F)cccc2F)oc1-c1ccc(OCCN2CCC[C@H]2CO)cc1` [Example S-5, (S)-2-(2,6-difluorophenyl)-5-(4-(2-(2-(hydroxymethyl)pyrrolidin-1-yl)ethoxy)phenyl)oxazole-4-carboxamide], the pIC50 (human FLT4) was greater than 5.00, the pIC50 (human FLT3) was greater than 4.00 and the pIC50 (human Aurora A) was greater than 5.00.
In the case of `NC(=O)c1nc(-c2c(F)cccc2F)oc1Nc1ccc(-n2cnnn2)cc1` [Example Q-31, 5-(4-(1H-tetrazol-1-yl)phenylamino)-2-(2,6-difluorophenyl)oxazole-4-carboxamide], the pIC50 (human FLT4) was greater than 5.00, the pIC50 (human FLT3) was greater than 5.00 and the pIC50 (human Aurora A) was greater than 5.00.
In the case of `NC(=O)c1nc(-c2c(F)cccc2F)oc1Nc1cccc(N2CCNCC2)c1` [Example Q-12, 2-(2,6-difluorophenyl)-5-(3-(piperazin-1-yl)phenylamino)oxazole-4-carboxamide formate salt], the pIC50 (human FLT4) was greater than 5.00, the pIC50 (human FLT3) was greater than 5.00 and the pIC50 (human Aurora A) was greater than 5.00.
For `NC(=O)c1nc(-c2c(F)cccc2F)oc1-c1ccc(OCCN2CCN(CCO)CC2)cc1` [Example S-7, 2-(2,6-difluorophenyl)-5-(4-(2-(4-(2-hydroxyethyl)piperazin-1-yl)ethoxy)phenyl)oxazole-4-carboxamide], the pIC50 (human FLT4) was greater than 5.00, the pIC50 (human FLT3) was greater than 5.00 and the pIC50 (human Aurora A) was greater than 5.00.
In the case of `NC(=O)c1nc(-c2c(F)cccc2F)oc1-c1ccc(OCCCN2CCCCC2)cc1` [Example S-12, 2-(2,6-difluorophenyl)-5-(4-(3-(piperidin-1-yl)propoxy)phenyl)oxazole-4-carboxamide], the pIC50 (human FLT4) was greater than 5.00, the pIC50 (human FLT3) was greater than 5.00 and the pIC50 (human Aurora A) was greater than 5.00.
`NC(=O)c1nc(-c2c(F)cccc2F)oc1Nc1ccc(-n2ccnc2)cc1` [Example Q-24, 5-(4-(1H-imidazol-1-yl)phenylamino)-2-(2,6-difluorophenyl)oxazole-4-carboxamide] showed a pIC50 (human FLT4) greater than 5.00, a pIC50 (human FLT3) greater than 5.00 and a pIC50 (human Aurora A) greater than 5.00.
`CC(=O)N1CCN(c2ccc(-c3oc(-c4c(F)cccc4F)nc3C(N)=O)cc2)CC1` [Example I-1, 5-(4-(4-acetylpiperazin-1-yl)phenyl)-2-(2,6-difluorophenyl)oxazole-4-carboxamide] showed a pIC50 (human FLT4) greater than 5.00, a pIC50 (human FLT3) greater than 5.00 and a pIC50 (human Aurora A) greater than 5.00.
Work on `NC(=O)c1nc(-c2c(F)cccc2F)oc1Nc1ccc(C(=O)NCCO)cc1` [Example U-16, 5-(4-((2-hydroxyethyl)carbamoyl)phenylamino)-2-(2,6-difluorophenyl)oxazole-4-carboxamide] yielded a pIC50 (human FLT4) greater than 5.00, a pIC50 (human FLT3) greater than 5.00 and a pIC50 (human Aurora A) greater than 5.00.
Work on `NC(=O)c1nc(-c2c(F)cccc2F)oc1-c1ccc(OCCN2CCCCC2)cc1` [Example F-14, 2-(2,6-difluorophenyl)-5-(4-(2-(piperidin-1-yl)ethoxy)phenyl)oxazole-4-carboxamide] yielded a pIC50 (human FLT4) greater than 5.00, a pIC50 (human FLT3) greater than 5.00 and a pIC50 (human Aurora A) greater than 5.00.
`NC(=O)c1nc(-c2c(F)cccc2F)oc1-c1ccc(OCCN2CCNC(=O)C2)cc1` [Example S-9, 2-(2,6-difluorophenyl)-5-(4-(2-(3-oxopiperazin-1-yl)ethoxy)phenyl)oxazole-4-carboxamide] gave a pIC50 (human FLT4) greater than 5.00, a pIC50 (human FLT3) greater than 5.00 and a pIC50 (human Aurora A) greater than 5.00.
Work on `NC(=O)c1nc(-c2c(F)cccc2F)oc1-c1ccc(N2CCNCC2)nc1` [Example G-2, 2-(2,6-difluorophenyl)-5-(6-(piperazin-1-yl)pyridin-3-yl)oxazole-4-carboxamide dihydrochloride] yielded a pIC50 (human FLT4) greater than 5.00, a pIC50 (human FLT3) greater than 5.00 and a pIC50 (human Aurora A) greater than 5.00.
In the case of `COc1ccc(-c2oc(-c3c[nH]c4ccccc34)nc2C(N)=O)cc1` [Example E-3, 2-(1H-indol-3-yl)-5-(4-methoxyphenyl)oxazole-4-carboxamide], the pIC50 (human FLT4) was greater than 5.00, the pIC50 (human FLT3) was greater than 4.00 and the pIC50 (human Aurora A) was greater than 4.00.
Work on `CNS(=O)(=O)c1ccc(Nc2oc(-c3c(F)cccc3F)nc2C(N)=O)cc1` [Example Q-27, 2-(2,6-difluorophenyl)-5-(4-(N′-methylsulfonamide)phenylamino)oxazole-4-carboxamide] yielded a pIC50 (human FLT4) greater than 5.00, a pIC50 (human FLT3) greater than 5.00 and a pIC50 (human Aurora A) greater than 5.00.
`CNCCC(=O)Nc1ccc(Nc2oc(-c3c(F)cccc3F)nc2C(N)=O)cc1` [Example V-3, 2-(2,6-difluorophenyl)-5-(4-(3-(methylamino)propanamido)phenylamino)oxazole-4-carboxamide] gave a pIC50 (human FLT4) greater than 5.00, a pIC50 (human FLT3) greater than 5.00 and a pIC50 (human Aurora A) greater than 5.00.
`CS(=O)(=O)c1ccc(Nc2oc(-c3cccc4[nH]ncc34)nc2C(N)=O)cc1` [Example Q-58, 2-(1H-indazol-4-yl)-5-(4-(methylsulfonyl)phenylamino)oxazole-4-carboxamide] gave a pIC50 (human FLT4) greater than 5.00, a pIC50 (human FLT3) greater than 5.00 and a pIC50 (human Aurora A) greater than 5.00.
In the case of `COc1ccc(-c2nc(-c3c[nH]c4ccc(OC)cc34)[nH]c2C(N)=O)cc1` [Example B-2, 2-(5-methoxy-1H-indol-3-yl)-4-(4-methoxyphenyl)-1H-imidazole-5-carboxamide], the pIC50 (human FLT4) was greater than 5.00, the pIC50 (human FLT3) was greater than 5.00 and the pIC50 (human Aurora A) was greater than 4.00.
For `CC(=O)N1CCN(c2ccc(-c3oc(-c4c(F)cccc4F)nc3C(N)=O)cn2)CC1` [Example I-2, 5-(6-(4-acetylpiperazin-1-yl)pyridin-3-yl)-2-(2,6-difluorophenyl)oxazole-4-carboxamide], the pIC50 (human FLT4) was greater than 5.00, the pIC50 (human FLT3) was greater than 5.00 and the pIC50 (human Aurora A) was greater than 5.00.
For `NC(=O)c1nc(-c2c(F)cccc2F)oc1Nc1ccc(N2CCNC(=O)C2)cc1` [Example Q-19, 2-(2,6-difluorophenyl)-5-(4-(3-oxopiperazin-1-yl)phenylamino)oxazole-4-carboxamide], the pIC50 (human FLT4) was greater than 5.00, the pIC50 (human FLT3) was greater than 5.00 and the pIC50 (human Aurora A) was greater than 5.00.
